Data published in patent US12037329B2, “SphK inhibitors and methods of making and using same” (Washington University, priority 2021, dated 2024).
Entries after “also recorded” stand apart in the source; their conditions may differ. Structures can show the parent of a compound that is named as a salt. Where two headings read alike, the source gives them in different places. Blank lines part the entries; values can stand above or below the molecule they belong to.

Columns and labels:
[1] = molecular target: T1, SphK2 (Homo sapiens (Human), UniProt Q9NRA0); assay: ADP-Glo kinase assay, SphK2; type: biochemical; conditions: for IC50: ADP-Glo assay, 50 μM ATP, recombinant human SphK2; for selectivity/specificity for SphK2 over SphK1: 125 μM of each compound, SphK2 versus SphK1, FIG. 5
Excerpt: The bioluminescence-based kinase assay such as ADP-Glo assay measures ADP formed from a kinase reaction with a luciferase. Upon the completion of a kinase reaction, the remaining ATP is depleted, the ADP produced in the kinase reaction is then converted to ATP and the detection is based on a sensitive and robust bioluminescence reaction. It has a broad linear range of ATP concentrations and high dynamic range. To determine the inhibition activity of the compounds, the ADP-Glo kinase assay was used which was able to detect down to 20% of 1 μM ATP to ADP conversion (FIG. 4A).
ADP-Glo (Promega, Madison, WI) kinase assay were used to evaluate the kinase activity of SphK. ATP to ADP standard curves were prepared in the kinase buffer to assess the linearity of the assay in order to calculate the amount of ADP produced in each tested conditions (FIG. 4A). SB10 (tenfold signal to background ra-tio) of SphK was also determined to evaluate the enzyme perfor-mance and to optimize the kinase reaction condition in this system. In brief, for SphK2, […], 100 μM of D-erythro-Sphingosine (Tocris Bioscience, Minneapolis, MN), and 2 ng of recombinant human SphK2 (R&D Systems, Minneapolis, MN) with desired concentration of each synthesized compound were used for SphK2 kinase reaction. For SphK1, exact same reaction condition was used except 0.5 ng of recombinant human SphK1 was used.
To evaluate the SphK selectivity of each compound, 125 μM of each compound in reaction buffer ([…] Tris, pH 8.0, […] MgCl2, and 0.1 mg/mL BSA) with 5% DMSO was incubated with either SphK1 or SphK2 in a 384-well solid white low volume microplate (Corning, Corning, NY), and the reaction was initiated by adding mixture of ATP and D-erythro-Sphingosine to a total volume of 5 μL, after 1 h incubation at room temperature with gentle shaking, the reaction was stopped by adding equal volume of ADP-Glo buffer and incubated for another hour to remove excess amount of ATP from the reaction. Afterwards, 10 μL of kinase detection reagent was added, mixed, and incubated for 30 min under dark. Luminescence output was recorded using a SpectraMax M5 Multi-Mode Microplate Readers (Molecular Devices, San Jose, CA), an integration time of 500 ms was used. All reactions were performed in triplicate. The enzyme activity of SphK in the presence of each compound was normalized to the no treatment control. […] The final data was calculated using Prism 7.0 (GraphPad Software, La Jolla, CA), IC50 was determined using Nonlinear regression (curve fit) four parameters dose-response calculations.

[2] = molecular target: T1, SphK2; conditions: SphK2-selective inhibitors; cited from earlier work
[3] = tested on: U-251 MG human glioblastoma cells; assay: U-251 MG cell viability, Hoechst 33258/propidium iodide imaging, 125 μM, 24 h; type: cell-based
Procedure: Cells were seeded into a 96-well microplate (Corning, Corning, NY) at 3000 cells/well and incubated for approximately 16 h. […] Cells were imaged using MetaXpress High-Content Image Acquisition and Analysis Software 6.1 and ImageXpress Micro XLS Wide-field High-Content Analysis System (Molecular Devices, San Jose, CA). Images were taken with a Nikon 10 CFI Plan Fluor objective. For all samples, triplicated measurements were performed.

[4] = tested on: U-251 MG cells; assay: CellTiter96 MTS cell viability dose response, U-251 MG; type: cell-based, human; conditions: read-out: IC50 (cell viability)
Procedure: The anti-tumor activity of these inhibitors was further examined at different doses.
Cell viability was determined using CellTiter96 MTS Assay and compared to DMSO treated control cells. IC50 values were calculated by non-linear regression analysis of the dose-response curve using GraphPad Prism version 8.00 for Windows (GraphPad Software).

T1 sequence (Q9NRA0 whole entry): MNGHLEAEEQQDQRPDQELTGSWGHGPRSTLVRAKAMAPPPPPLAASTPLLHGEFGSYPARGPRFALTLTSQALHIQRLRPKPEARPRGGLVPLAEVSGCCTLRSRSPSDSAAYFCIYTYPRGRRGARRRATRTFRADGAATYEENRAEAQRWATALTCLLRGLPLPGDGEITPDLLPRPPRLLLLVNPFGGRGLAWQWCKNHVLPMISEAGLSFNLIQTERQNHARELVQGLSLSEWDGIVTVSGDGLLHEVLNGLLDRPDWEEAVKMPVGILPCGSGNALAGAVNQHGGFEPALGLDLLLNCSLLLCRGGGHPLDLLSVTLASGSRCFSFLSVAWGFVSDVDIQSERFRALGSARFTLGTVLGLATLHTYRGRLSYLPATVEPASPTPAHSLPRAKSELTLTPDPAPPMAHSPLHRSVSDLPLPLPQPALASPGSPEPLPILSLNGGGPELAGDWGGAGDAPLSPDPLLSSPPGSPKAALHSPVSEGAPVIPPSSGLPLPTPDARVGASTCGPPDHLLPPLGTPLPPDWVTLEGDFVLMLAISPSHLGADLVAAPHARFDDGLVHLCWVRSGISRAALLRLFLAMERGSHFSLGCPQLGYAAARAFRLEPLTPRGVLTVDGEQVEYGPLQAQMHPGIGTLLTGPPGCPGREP

Molecule: N=C(N)N1CCC[C@H]1c1nc(-c2ccc(Cn3cc(-c4cccs4)nn3)cc2)no1 [Compound 25e, (S)-2-((3-(4-((4-(Thiophen-2-yl)-1H-1,2,3-triazol-1-yl)methyl)phenyl)-1,2,4-oxadiazol-5-yl)-pyrrolidine-1-carboximidamide hydrochloride]
IC50 [1]: 687 nM

IC50 [1]: 280 nM
Molecule: N=C(N)N1CCC[C@H]1Cc1nc(-c2ccc(Nc3nc(-c4cccc(C(F)(F)F)c4)cs3)cc2)no1 [Compound 13, reference compound]
Ki [2]: 90 nM

Molecule: N=C(N)N1CCC[C@H]1c1nc(-c2ccc(Cn3cc(-c4ccc(F)cc4)nn3)cc2)no1 [Compound 25g, (S)-2-((3-(4-((4-(4-Fluorophenyl)-1H-1,2,3-triazol-1-yl)methyl)phenyl)-1,2,4-oxadiazol-5-yl)-pyrrolidine-1-carboximidamide hydrochloride]
IC50 [1]: 391 nM

Molecule: Cl.N=C(N)N1CCC[C@H]1Cc1nc(-c2ccc(Cn3cc(-c4ccccc4)nn3)cc2)no1 [Compound 21a, (S)-2-((3-(4-((4-Phenyl-1H-1,2,3-triazol-1-yl)methyl)phenyl)-1,2,4-oxadiazol-5yl)methyl)pyrrolidine-1-carboximidamide hydrochloride]
IC50 [1]: 396 nM
antitumor activity / reduction of U-251 MG cell viability (in words) ([3]; hydrochloride): high anti-tumor activity; also recorded: significant reduction
IC50 ([4]; Homo sapiens, U-251, 72 h): 17000 nM

IC50 [1]: 452 nM
Molecule: Cl.N=C(N)N1CCC[C@H]1Cc1nc(-c2ccc(Cn3cc(-c4ccccn4)nn3)cc2)no1 [Compound 21c, (S)-2-((3-(4-((4-(Pyridin-2-yl)-1H-1,2,3-triazol-1-yl)methyl)phenyl)-1,2,4-oxadiazol-5-yl)methyl)pyrrolidine-1-carboximidamide hydrochloride]
selectivity/specificity for SphK2 over SphK1 ([1]; hydrochloride): high selectivity; also recorded: highest specificity

Molecule: Cl.Cn1cc(-c2cn(Cc3ccc(-c4noc(C[C@@H]5CCCN5C(=N)N)n4)cc3)nn2)cn1 [Compound 21g, (S)-2-((3-(4-((4-(1-Methyl-1H-pyrazol-4-yl)-1H-1,2,3-triazol-1-yl)methyl)phenyl)-1,2,4-oxadiazol-5-yl)methyl)pyrrolidine-1-carboximidamide hydrochloride]
selectivity/specificity for SphK2 over SphK1 ([1]; hydrochloride): high selectivity; also recorded: highest specificity
IC50 [1]: 234 nM

IC50 [1]: 640 nM
Molecule: COc1ccc(-c2cn(Cc3ccc(-c4noc(C[C@@H]5CCCN5C(=N)N)n4)cc3)nn2)cc1.Cl [Compound 21e, (S)-2-((3-(4-((4-(4-Methoxyphenyl)-1H-1,2,3-triazol-1-yl)methyl)phenyl)-1,2,4-oxadiazol-5-yl)methyl)pyrrolidine-1-carboximidamide hydrochloride]
selectivity/specificity for SphK2 over SphK1 ([1]; hydrochloride): high selectivity; also recorded: highest specificity
antitumor activity / reduction of U-251 MG cell viability (in words) [3]: comparable reduction

IC50 [1]: 269 nM
Molecule: Cn1nccc1-c1cn(Cc2ccc(-c3noc(C4(C(=N)N)CC4)n3)cc2)nn1 [Compound 29b, hydrochloride]

Molecule: CCCCc1cn(Cc2ccc(-c3noc([C@@H]4CCCN4C(=N)N)n3)cc2)nn1.Cl [Compound 25f, (S)-2-((3-(4-((4-Butyl-1H-1,2,3-triazol-1-yl)methyl)phenyl)-1,2,4-oxadiazol-5-yl)pyrrolidine-1-carboximidamide hydrochloride]
IC50 [1]: 254 nM

Molecule: CCCCc1cn(Cc2ccc(-c3noc([C@@H]4CCCN4C(=N)N)n3)cc2)nn1.Cl [Compound 25f]
selectivity/specificity for SphK2 over SphK1 [1]: high selective

Molecule: Cl.N=C(N)N1CCC[C@H]1c1nc(-c2ccc(Cn3cc(-c4ccc(C(F)(F)F)cc4)nn3)cc2)no1 [Compound 25b]
antitumor activity / reduction of U-251 MG cell viability (in words) ([3]; hydrochloride): high anti-tumor activity; also recorded: higher antitumor activity; also recorded: tremendously decreased; also recorded: significant reduction

Molecule: Cl.N=C(N)C1(c2nc(-c3ccc(Cn4cc(-c5ccccc5)nn4)cc3)no2)CC1 [Compound 29a, 1-(3-(4-((4-Phenyl-1H-1,2,3-triazol-1-yl)methyl)phenyl)-1,2,4-oxadiazol-5-yl)cyclopropanecarboximidamide hydrochloride]
selectivity/specificity for SphK2 over SphK1 [1]: highly selective
IC50 [1]: 261 nM

Molecule: COc1ccc(-c2cn(Cc3ccc(-c4noc([C@@H]5CCCN5C(=N)N)n4)cc3)nn2)cc1.Cl [Compound 25d, (S)-2-((3-(4-((4-(4-Methoxyphenyl)-1H-1,2,3-triazol-1-yl)methyl)phenyl)-1,2,4-oxadiazol-5-yl)-pyrrolidine-1-carboximidamide hydrochloride]
IC50 [1]: 266 nM
IC50 ([4]; U-251 MG cells, 72 h, MTS): 78200 nM

Molecule: Cl.N=C(N)N1CCC[C@H]1c1nc(-c2ccc(Cn3cc(-c4ccc(C(F)(F)F)cc4)nn3)cc2)no1 [Compound 25b, (S)-2-((3-(4-((4-(4-(Trifluoromethyl)phenyl)-1H-1,2,3-triazol-1-yl)methyl)phenyl)-1,2,4-oxadiazol-5-yl)pyrrolidine-1-carboximidamide hydrochloride]
IC50 [1]: 359 nM
IC50 ([4]; U-251 MG cells, 72 h, MTS): 12300 nM

selectivity/specificity for SphK2 over SphK1 [1]: lowest specificity
IC50 ([1]; hydrochloride): 900 nM
Molecule: Cl.N=C(N)N1CCC[C@H]1c1nc(-c2ccc(Cn3cc(-c4ccccn4)nn3)cc2)no1 [Compound 25c, (S)-2-(3-(4-((4-(Pyridin-2-yl)-1H-1,2,3-triazol-1-yl)methyl)phenyl)-1,2,4-oxadiazol-5-yl)pyrrolidine-1-carboximidamide hydrochloride]

Molecule: Cl.N=C(N)N1CCC[C@H]1c1nc(-c2ccc(Cn3cc(C4CC4)nn3)cc2)no1 [Compound 25h]
selectivity/specificity for SphK2 over SphK1 [1]: high selective

Molecule: Cl.N=C(N)N1CCC[C@H]1c1nc(-c2ccc(Cn3cc(C4CC4)nn3)cc2)no1 [Compound 25h, (S)-2-((3-(4-((4-Cyclopropyl-1H-1,2,3-triazol-1-yl)methyl)phenyl)-1,2,4-oxadiazol-5-yl)pyrrolidine-1-carboximidamide hydrochloride]
IC50 [1]: 248 nM

SphK2 inhibitory activity (in words) [1]: no inhibitory activity
Molecule: Cl.N=C(N)N1CCC[C@H]1Cc1nc(-c2ccc(Cn3cc(C4CC4)nn3)cc2)no1 [Compound 21f, (S)-2-((3-(4-((4-Cyclopropyl-1H-1,2,3-triazol-1-yl)methyl)phenyl)-1,2,4-oxadiazol-5-yl)methyl)pyrrolidine-1-carboximidamide hydrochloride]
selectivity/specificity for SphK2 over SphK1 ([1]; hydrochloride): lowest specificity; also recorded: no selectivity

Molecule: ABC294640 [Compound 7, reference compound]
reduction of viability of U-251 MG cells ([3]; versus no treatment control): approximately 50%

SphK2 inhibitory activity (in words) [1]: no inhibitory activity
Molecule: CCCCc1cn(Cc2ccc(-c3noc(C[C@@H]4CCCN4C(=N)N)n3)cc2)nn1.Cl [Compound 21d, (S)-2-((3-(4-((4-Butyl-1H-1,2,3-triazol-1-yl)methyl)phenyl)-1,2,4-oxadiazol-5-yl)methyl)pyrrolidine-1-carboximidamide hydrochloride]
selectivity/specificity for SphK2 over SphK1 ([1]; hydrochloride): lowest specificity; also recorded: no selectivity

Molecule: COc1ccc(-c2cn(Cc3ccc(-c4noc([C@@H]5CCCN5C(=N)N)n4)cc3)nn2)cc1.Cl [Compound 25d]
antitumor activity / reduction of U-251 MG cell viability (in words) [3]: comparable reduction

IC50 [1]: 717 nM
Molecule: N=C(N)C1(c2nc(-c3ccc(Cn4cc(C5CC5)nn4)cc3)no2)CC1 [Compound 29c, 1-(3-(4-((4-Cyclopropyl-1H-1,2,3-triazol-1-yl)methyl)phenyl)-1,2,4-oxadiazol-5-yl)cyclopropanecarboximidamide hydrochloride]

Molecule: Cn1cc(-c2cn(Cc3ccc(-c4noc(C5(C(=N)N)CC5)n4)cc3)nn2)cn1 [Compound 29b, hydrochloride]
selectivity/specificity for SphK2 over SphK1 [1]: highly selective
